Article PMC4929710, “Specificity and mechanism of action of alpha-helical membrane-active peptides interacting with model and biological membranes by single-molecule force spectroscopy” (Scientific Reports, 2016)
Read-outs that look alike come from different tables or passages of the source.

Experiments:
3T3-L1 cells = test: Single-molecule force spectroscopy (AFM); format: binding, mouse; details: RMS ± SD; N-terminal Cys peptide on AFM tip via PEG linker
Excerpt: (§1) Based on the above results, five selected peptides of V13L, A12L/A20L, V13K, V13E, and L6A/L17A, with different hydrophobicity and charges were used to examine the interaction probabilities and forces between peptides and membranes, both on the lipid model membranes and on the biological membranes by SMFS based on AFM, respectively. A cysteine residue was covalently introduced to the N-terminus of peptides and provided a free sulfhydryl group to modify the tips of the AFM. A PEG linker was used since each heterobifunctional PEG–NHS linker (approximately 20 nm) can only covalently connect with a single peptide molecule, which guarantees a single-molecule interaction between MAPs and biological membranes in real time[19]. If an AFM tip was functionalized with two or more peptides, where several peaks were recorded. In the reports, data with two peaks were not collected and calculated. For one force–distance cycle, one peptide-functionalized AFM tip approached the model and biological membranes right on the top, and the subsequent tip was withdrawn from the cell membranes to retrace the process. […] In addition, blocking experiment was used to test the specificity of these force events. As the electrostatic attraction is one important reason for peptides approaching model membranes and biological membranes, the Tris-HCl buffer including plenty amino groups[20] was injected into the working chamber and inhibits the interactions between MAPs and model membranes/biological membranes. […] The unbinding forces of V13L against different model membranes and biological membranes with the loading rate of 1 × 10^5 pN s^−1 are shown in Fig. 3c,f–h,j–l.
The AFM tip was first washed with concentrated sulfuric acid and hydrogen peroxide (3:1, v:v). The tip was dried using ozone (O3) for 15 min and dried overnight in a dryer. The tip was then modified with APTES under an argon atmosphere and the peptide connected with a PEG–NHS linker. Finally, the AFM tip linked with the peptide was washed three times in PBS and kept at 4 °C. A 500-μL LUV suspension was deposited on Lys coated glass and the LUVs were absorbed on the surface for 1 h at 65 °C [9][29]. A. laidlawii was deposited on poly-L-lysine coated glass and absorbed for 1 h at 37 °C [30]. The 3T3-L1 and HeLa cells were cultured on glass slides in Dulbecco’s modified Eagle’s medium (DMEM). Before performing force spectroscopy experiments, the cells were washed with fresh DMEM three times to remove the cell metabolites. Isolation of chicken erythrocytes was carried out at room temperature. Then the erythrocytes were washed three times in 2 mL PBS buffer by centrifuge (1,000 rpm) and resuspended in PBS buffer. 200 μL erythrocyte suspension were deposited onto poly-L-lysine coated glass for 20 min[10]. […]

PC/PG (7:3 w/w) LUVs [1] = test: Single-molecule force spectroscopy (AFM); format: binding; details: RMS ± SD; N-terminal Cys peptide on AFM tip via PEG linker; prokaryotic model membrane
Excerpt: as §1
(§2) In accordance with previously described methods, LUVs were prepared with PC/PG (7:3 w/w), PC/Chol (8:1 w/w), and PC/SM/PE/PS/Chol (4.35:4.35:1:0.3:1 w/w) to mimic prokaryotic cell, […], membranes, respectively. Lipids using the freeze-thaw method as described previously, followed by extrusion through […] double-stacked nuclepore filters using an Mini-Extruder (Avanti Polar Lipids, Inc.)[11][27].
(§3) The AFM tip was first washed with concentrated sulfuric acid and hydrogen peroxide (3:1, v:v). The tip was dried using ozone (O3) for 15 min and dried overnight in a dryer. The tip was then modified with APTES under an argon atmosphere and the peptide connected with a PEG–NHS linker. Finally, the AFM tip linked with the peptide was washed three times in PBS and kept at 4 °C. A 500-μL LUV suspension was deposited on Lys coated glass and the LUVs were absorbed on the surface for 1 h at 65 °C [9][29]. A. laidlawii was deposited on poly-L-lysine coated glass and absorbed for 1 h at 37 °C [30]. The 3T3-L1 and HeLa cells were cultured on glass slides in Dulbecco’s modified Eagle’s medium (DMEM). Before performing force spectroscopy experiments, the cells were washed with fresh DMEM three times to remove the cell metabolites. Isolation of chicken erythrocytes was carried out at room temperature. Then the erythrocytes were washed three times in 2 mL PBS buffer by centrifuge (1,000 rpm) and resuspended in PBS buffer. 200 μL erythrocyte suspension were deposited onto poly-L-lysine coated glass for 20 min[10]. The force measurements of MAPs with LUVs mimicking membranes and living cells were performed using the AFM5500 (Agilent Technologies, Chandler, AZ, USA)[19].

[2] = tested on: PC/SM/PE/PS/Chol (4.35:4.35:1:0.3:1 w/w) LUVs; test: Single-molecule force spectroscopy (AFM); format: binding; details: RMS ± SD; N-terminal Cys peptide on AFM tip via PEG linker; cancer cell model membrane
Excerpt: as §1, §2, §3

HeLa cells = format: cell-based, human; details: 24 h
Protocol: (§4) The MTT cell proliferation assay was used to investigate the anticancer activity and cytotoxicity of MAPs against cancer cell lines (HeLa, A549, SGC-7901, and B16) and normal cells (3T3-L1), respectively. Cells (5 × 10^3) were seeded in 96-well plates and incubated overnight. The peptide samples were then added to cells with final concentrations ranging from 1 μM to 125 μM. After 24 h, 20 μL of 5 mg/mL MTT solution in PBS was added to the cells and treated for 4 h at 37 °C. The formazan crystals were dissolved by 150 μL of dimethyl sulfoxide (DMSO). Finally, the absorbance was determined at 492 nm. The results were expressed as IC50, representing the concentration at which cell viability was reduced by 50%. All assays were repeated in triplicate.

A549 cells = format: cell-based, human; details: 24 h
Protocol: as §4

SGC7901 cells = format: cell-based, human; details: 24 h
Protocol: as §4

PC/PG (7:3 w/w) LUVs [3] = test: Tryptophan fluorescence with LUVs; format: binding; details: PC/PG (7:3 w/w) LUVs versus HEPES buffer, 25 °C
Excerpt: In order to investigate the interaction between peptides and difference types of cell membranes, three different LUVs were used to mimic a prokaryotic cell membrane (PC/PG), a normal eukaryotic cell membrane (PC/Chol), and a cancer cell membrane (PC/SM/PE/PS/Chol). Tryptophan residue in the peptide sequence was used as a fluorescent probe to examine the interaction of peptides with model membranes. […] For example, in the PC/PG (7:3 w/w) anionic prokaryotic mimicking model membrane, peptides V13L and A12L/A20L had the strongest hydrophobicity with blue shift values of approximately 37 nm and 38 nm, respectively. Conversely, peptide V13E with a negative charge of glutamic acid residue, and peptide L6A/L17A with the lowest hydrophobicity had blue shift values of approximately 18 nm and 17 nm, respectively. […] In addition, within PC/SM/PE/PS/Chol (4.35:4.35:1:0.3:1 w/w) as a cancer-mimicking model membrane, the same results could be obtained in that peptide hydrophobicity correlates with anticancer activity and the blue shift values of peptides.
as §2
Three kinds of LUVs were prepared and cultured in HEPES buffer (pH 7.4, 10 mM HEPES, 150 mM NaCl) and the molar concentration was adjusted to 100 μM. A total of 14 μL of 100 μM MAPs was mixed with 686 μL of 100 μM liposomes at 25 °C for 10 min. A Shimadzu RF-5301PC, (excitation wavelength of […], emission wavelength of 300–450 nm) was used to measure the tryptophan fluorescence. Potassium iodide (KI) as a quencher was added to the previous reaction system for a final concentration of 0.02–0.08 M, respectively. The experimental data were plotted according to the Stern–Volmer equation F0/F = 1 + Ksv[Q], where F0 and F are the fluorescence intensity in the absence or presence of a quencher at concentration [Q], respectively, and Ksv is the Stern–Volmer quenching constant.

[4] = MTT, 1-125 μM, triplicate, read-out: IC50 HeLa
[5] = MTT, 1-125 μM, triplicate, read-out: IC50 A549
[6] = MTT, 1-125 μM, triplicate, read-out: IC50 SGC7901

Row | Compound | Unbinding force 3T3-L1 (3T3-L1 cells) [pN] | Unbinding force PC/PG (PC/PG (7:3 w/w) LUVs [1]) [pN] | Unbinding force PC/SM/PE/PS/Chol [2] [pN] | IC50 (HeLa cells) [µM] | IC50 (A549 cells) [µM] | IC50 (SGC7901 cells) [µM] | IC50 (HeLa cells; [4]) [µM] | IC50 (A549 cells; [5]) [µM] | IC50 (SGC7901 cells; [6]) [µM] | PC/PG Blue shift (PC/PG (7:3 w/w) LUVs [3]) [nm]
1 | Ac-KWKSFLKTFKSAEKTVLHTALKAISS-NH2 [Peptide V13E] | 51 ± 11 | 111 ± 37 | 92 ± 34 | 73.7 | 110 | 92 | – | – | – | –
2 | Ac-KWKSFLKTFKSALKTVLHTALKAISS-NH2 [Peptide V13L] | 30 ± 11 | 127 ± 34 | 124 ± 40 | 4.86 | 2.8 | 2 | – | – | – | –
3 | CC[C@H](C)[C@H](NC(=O)[C@H](C)NC(=O)[C@H](CCCCN)NC(=O)[C@H](CC(C)C)NC(=O)[C@H](C)NC(=O)[C@@H](NC(=O)[C@H](Cc1cnc[nH]1)NC(=O)[C@H](CC(C)C)NC(=O)[C@@H](NC(=O)[C@@H](NC(=O)[C@H](CCCCN)NC(=O)[C@H](CCCCN)NC(=O)[C@H](C)NC(=O)[C@H](CO)NC(=O)[C@H](CCCCN)NC(=O)[C@H](Cc1ccccc1)NC(=O)[C@@H](NC(=O)[C@H](CCCCN)NC(=O)[C@H](CC(C)C)NC(=O)[C@H](Cc1ccccc1)NC(=O)[C@H](CO)NC(=O)[C@H](CCCCN)NC(=O)[C@H](Cc1c[nH]c2ccccc12)NC(=O)[C@H](CCCCN)NC(C)=O)[C@@H](C)O)[C@@H](C)O)C(C)C)[C@@H](C)O)C(=O)N[C@@H](CO)C(=O)N[C@@H](CO)C(N)=O [Peptide V13K] | 51 ± 15 | 135 ± 36 | 128 ± 51 | – | – | – | 13.1 | 24.4 | 18.9 | 28
4 | Ac-KWKSFAKTFKSAKKTVAHTALKAISS-NH2 [L6A/L17A] | 39 ± 12 | 132 ± 41 | 130 ± 36 | – | – | – | > 125 | > 125 | > 125 | ~17
